Measurements reported in US10709677B2, “Therapeutic uses of benzylideneguanidine derivatives for the treatment of proteopathies” (InFlectis BioScience, priority 2014, dated 2020).
pEC50: −log10 of the molar value.

What was measured:
HeLa cells [1] = details: tunicamycin, Tsaytler et al., Science 2011, cited from earlier work; for protection of cells from cytotoxic ER stress: HeLa cells
HeLa cells [2] = experiment: Assessment of translation rates in unstressed cells; type: cell-based; details: compounds 50 μM for 2.5, 5 and 9 h
Procedure: Culture medium was replaced by methionine-free DMEM medium (Invitrogen) 30 min before compounds addition. One hour before each time point, 50 μM of Click-iT® AHA (L-azidohomoalanine) (Invitrogen) was added to the culture medium in order to label newly synthesized proteins. At the end of each time point, cells were washed with ice-cold PBS and harvested by Trypsine dissociation (Lonza), then lysed in a 50 mM Tris-HCl buffer containing 1% of SDS (Sigma) and protease and phosphatase inhibitors (Sigma). Protein samples were coupled to alkyne biotin (Invitrogen) using Click-iT® Protein Reaction Buffer Kit (Invitrogen). Samples were denatured at 70° C. for 10 min, resolved on ECL 4-20% precasted gels (GE Healthcare) and transferred to nitrocellulose membranes (GE Healthcare). Alkyne biotin coupled to Click-iT® AHA incorporated to newly synthesized proteins was detected using streptavidin-HRP (Gentex). Revelation was performed by incubation of ECL Prime (GE Healthcare) and read by chemoluminiscence using Fusion Solo 3S (Vilber Lourmat).

HeLa cells [3] = experiment: Cytoprotection from ER stress (tunicamycin, WST-8 cell viability); type: cell-based; details: 6 hour exposure of tunicamycin 5 μg/mL, inhibitors 0.5-10 μM, viability 48 h or 72 h after
Text: Cytoprotection against ER stress can be measured by a suitable assay. For example, cytoprotection can be measured in HeLa cells in which ER stress is elicited by the addition of media containing tunicamycin, a mixture of homologous nucleoside antibiotics that inhibits the UDP-HexNAc: polyprenol-P HexNAc-1-P family of enzymes and is used to induce unfolded protein response. Cell viability can be detected in the presence and absence of inhibitor compounds after a set period of time, by measuring the reduction of WST-8 into formazan using a standard cell viability kit (such as Cell Viability Counting Kit-8 from Dojindo). The person skilled in the art may use other class of tetrazolium compounds such as MTT, MTS, XTT. Cytoprotection from ER stress is measured in terms of the percentage increase in viable cells (relative to control) after ER stress. Alternative cell viability assays may be used such as luminogenic ATP assay. Further details of a suitable assay are set forth in the accompanying Examples section.
HeLa Cells were cultured in Eagle's Minimum Essential Medium (EMEM) supplemented with Glutamine, Sodium Pyruvate, Non-Essential Amino Acids, Penicillin and Streptomycin containing 10% Fœtal Bovine Serum (FBS), at 37° C. in 5% CO2 atmosphere. Cells were plated in 96 well plates at a density of 17,000 cells/mL the day before the treatment. ER stress was elicited by addition of 5 μg/mL tunicamycin (Sigma-Aldrich) together with the phosphatases inhibitors (0.5-10 μM). Media were changed 6 h later with fresh media and the cytoprotection was maintained by the addition of the phosphatases inhibitors (0.5-10 μM). Cell viability was assessed by measuring the reduction of WST-8 into formazan using Cell Counting Kit-8 (Sigma) according to the supplier's recommendation, 48 h or 72 h after tunicamycin treatment.

human alpha2A receptor = target: T1, human alpha2A receptor (Homo sapiens, UniProt P08913); experiment: Functional GPCR assay for adrenergic α2A receptor (CellKey detection method); type: cell-based; details: agonist activity, CHO cells, impedance; EC50>33.3 μM considered no significant alpha-2 adrenergic activity; read-out: Functional adrenergic alpha2 receptor assay EC50
T1 construct: CHO cells endogenously expressing human alpha2A receptor; endogenous in cells; host or cells: CHO cells
T1 sequence (P08913 1-465): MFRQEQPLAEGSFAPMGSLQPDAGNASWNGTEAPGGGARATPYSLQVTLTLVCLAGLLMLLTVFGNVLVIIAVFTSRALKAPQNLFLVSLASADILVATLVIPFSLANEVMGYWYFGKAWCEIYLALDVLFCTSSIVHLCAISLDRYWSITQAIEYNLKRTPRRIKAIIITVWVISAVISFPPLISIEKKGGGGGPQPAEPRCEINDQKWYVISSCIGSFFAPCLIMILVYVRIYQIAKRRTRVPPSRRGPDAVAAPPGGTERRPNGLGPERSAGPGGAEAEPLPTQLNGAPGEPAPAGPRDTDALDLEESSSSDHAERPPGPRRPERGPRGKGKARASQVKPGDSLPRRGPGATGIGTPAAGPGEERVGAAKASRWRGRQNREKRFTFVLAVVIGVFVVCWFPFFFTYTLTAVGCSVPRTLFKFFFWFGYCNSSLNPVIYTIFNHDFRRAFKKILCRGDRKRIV

INS1 insulinoma cell = experiment: Cytoprotection from ER stress (tunicamycin) in INS1 cell line; type: cell-based; details: 6 hour exposure to tunicamycin, different concentrations
Procedure: (§1) Cells were plated in 96 well plates at a density of 0.5·10^6 cells/mL for Min6 cell line, 0.4·10^6 cells/mL for INS1 cell line the day before the treatment.
(§2) ER stress was elicited by addition of 2.5 μg/mL tunicamycin (Sigma Aldrich) together with phosphatases inhibitors.
(§3) Media were changed 6 h later with fresh media and the cytoprotection was maintained by the addition of phosphatases inhibitors.
(§4) Cell viability was assessed by measuring the reduction of WST-8 into formazan using Cell Counting Kit-8 (Sigma) according to the supplier's recommendation, 72 h after tunicamycin treatment.

Min6 insulinoma cell = experiment: Cytoprotection from ER stress (tunicamycin) in Min6 cell line; type: cell-based; details: 6 hour exposure to tunicamycin, different concentrations
Procedure: as §1, §2, §3, §4

Min6 cells = experiment: Protection against accumulation of misfold prone Insulin Akita in Min6 cells; type: cell-based; details: viability 9 days after treatment
Procedure: Min6 cells were nucleofected with Insulin^Akita a mutant constructs and seeded in 96 well-plates at 300,000 cells/mL and 24 h later, cells were treated with molecules or left untreated. As a control, cells were nucleofected with non-relevant plasmid. 6 days later, a selective agent was added (G418).
Cell viability was assessed by measuring the reduction of WST-8 into formazan using Cell Counting Kit-8 (Sigma) according to the supplier's recommendation, 9 days after treatment.

[4] = tested on: mouse embryonic fibroblasts lipofected with poly I:C; experiment: In vitro inflammation/infection model: poly I:C induced mouse embryonic fibroblasts; type: cell-based; details: 25 μM, 6 h, IFN-beta ELISA
Procedure: After 6 h of culture, eIF2alpha-phosphorylation (eIF2α-P) and PPP1R15A (GADD34) expression was monitored by western blotting, while type-I Interferon (IFN)-beta production was quantified in culture supernatants by ELISA. Control (nt) and poly I:C/DMSO are respectively negative and positive controls.
MEFs were cultured in DMEM, 10% FCS (HyClone, Perbio), 100 units/ml penicillin, 100 μg/ml streptomycin, 2 mM glutamine, 1×MEM non-essential amino acids and 50 μM 2-mercaptoethanol. MEFS were treated for the indicated time with 10 μg/ml poly I:C (InvivoGen) in combination with lipofectamine 2000 (Invitrogen).
Cells were lysed in 1% Triton X-100, 50 mM Hepes, 10 mM NaCl, 2.5 mM MgCl2, 2 mM EDTA, 10% glycerol, supplemented with Complete Mini Protease Inhibitor Cocktail Tablets (Roche). Protein quantification was performed using the BCA Protein Assay (Pierce). […] Rabbit polyclonal antibodies recognizing GADD34 (C-19) were from Santa Cruz Biotechnology and anti-eIF2alpha[pS^52] were from Invitrogen.
IFN-beta quantification in culture supernatant was performed using the Mouse Interferon Beta ELISA kit (PBL Interferon Source) according to manufacturer instructions.

Compound | Translation inhibition in non-stressed cells (HeLa cells [2]) | Cytoprotection from ER stress compared to guanabenz (HeLa cells [3]) | also measured
CCC1(C2=NCCN2)Cc2ccccc2O1 (stereo not shown) [efaroxan] |  |  | protection of cells from cytotoxic ER stress (HeLa cells [1]): Neither the α2-adrenergic receptor agonist clonidine, nor the α2-adrenergic receptor antagonist efaroxan protected cells
NC(N)=N/N=C/c1c(Cl)cccc1Cl [guanabenz, 2-(2,6-dichlorobenzylidene)hydrazinecarboximidamide] |  |  | protection of cells from cytotoxic ER stress (HeLa cells [1]): doubled the number of cells surviving ER stress; pEC50 (HeLa cells [1]; read-out: median effective concentration, survival of HeLa cells exposed to ER stress): ~6.40
CC(=O)O.N=C(N)N/N=C/c1ccncc1Cl [Compound 7, 2-[(3-chloropyridin-4-yl)methylidene]hydrazinecarboximidamide acetate] | no effect | ++ | pEC50 (human alpha2A receptor): < 4.48
N=C(N)N/N=C/c1ccccc1Br [Compound 3, 2-(2-bromobenzylidene) hydrazinecarboximidamide] | no effect | ++ | 
N=C(N)N/N=C/c1ccncc1Cl [Compound 6, 2-[(3-chloropyridin-4-yl)methylidene]hydrazinecarboximidamide] | no effect | + | INS1 insulinoma cell death induced by tunicamycin (FIG. 10) (INS1 insulinoma cell): prevent INS1 insulinoma cell death; Min6 insulinoma cell death induced by tunicamycin (FIG. 9) (Min6 insulinoma cell): prevent Min6 insulinoma cell death; cell death associated with accumulation of misfold prone Insulin Akita (FIG. 8) (Min6 cells): prevent cell death; type-I IFN production (FIG. 13) [4]: prevent type-I IFN production
CC(=O)O.N=C(N)N/N=C/c1c(F)cccc1Cl [Compound 8, 2-(2-chloro-6-fluorobenzylidene)hydrazinecarboximidamide acetate] | no effect | ++ | type-I IFN production (FIG. 13) [4]: prevent type-I IFN production
Cc1ccc(Cl)c(/C=N/NC(=N)N)c1 [Compound 10, 2-(2-chloro-5-methylbenzylidene)hydrazinecarboximidamide] |  | + | 
Cc1ccc(/C=N/NC(=N)N)c(Cl)c1 [Compound 9, 2-(2-chloro-4-methylbenzylidene)hydrazinecarboximidamide] |  | − | 
COc1ccccc1/C=N/NC(=N)N [Compound 4, 2-(2-methoxybenzylidene) hydrazinecarboximidamide] |  | + | 
Cc1cccc(/C=N/NC(=N)N)c1Cl [Compound 11, 2-(2-chloro-3-methylbenzylidene)hydrazinecarboximidamide] |  | + | 
Clc1cccc(Cl)c1N=C1NCCN1 [clonidine] |  |  | protection of cells from cytotoxic ER stress (HeLa cells [1]): Neither the α2-adrenergic receptor agonist clonidine, nor the α2-adrenergic receptor antagonist efaroxan protected cells
